Laboratory results as given in US20070299119A1, “Prophylactic or Therapeutic Agent for Severe Diabetic Retinopathy” (SANWA KAGAKU KENKYUSHO CO., LTD., priority 2004, published 2007).

System: severe retinopathy (tractional retinal detachment, IRMA) in SDT rats
Assay: Histopathological examination and fluorescein fundus angiography of severe retinopathy in spontaneously diabetic Torii (SDT) rats
Format: in vivo, rat
Method: Diabetes mellitus occurs in spontaneously diabetic Torii (SDT) rats at about 20 weeks of age. Accordingly, blood glucose levels were confirmed at about 25 weeks of age, and rats showing an increase in blood glucose level (at least 300 mg/dl) were used in the experiment. The male SDT rats confirmed to develop diabetes mellitus were divided into two groups, that is, 1) untreatment control (n=14) group and 2) SNK-860 treatment (16 mg/kg/day, n=17)group. The compound was mixed with usual feed (CRF-1: Oriental Yeast Co., Ltd.) and then administered into the rats. The CRF-1 solid feed not containing the compound was freely ingested by the control group, while CRF-1 solid feed containing 0.01333% SNK-860 was freely ingested by the SNK-860 treatment group. At 36 weeks of age and at 52 to 58 weeks of age, the rats were anesthetized and then the eyeballs were excised and used in histopathological examination. The SNK-860-containing feed was prepared in the following manner. SNK-860 was weighed and mixed well with a small amount of CRF-1 powdered feed. Thereafter, additional powdered feed was added thereto, stirred well and solidified. The dose established this time was 16 mg/kg. The concentration of this agent in the feed, calculated on the basis of the established dose, the weight of the rat and the amount of the feed ingested for 1 day, was 0.01333%. The histopathological examination was carried out in the following manner. The rat was anesthetized with ether and by intraperitoneal administration of Nembutal, and then the eyeballs were excised. The excised eyeballs were placed in a mixed solution (1:1:2) consisting of 4% glutaraldehyde, 10% neutral formalin and a phosphate buffer (pH 7.2, 0.3 mol/l). After 60 minutes, the eyeball was cut into halves under a stereoscopic microscope and then stored overnight at 4° C. The next morning, the eyeballs were embedded in a usual manner into paraffin to prepare a transverse section containing a bundle of optic nerves. The section was stained with hematoxylin-eosin. Fluorescein fundus angiography was carried out by opening the chest under the same anesthesia, injecting fluorescein dextran (Sigma, 50 mg/1 ml PBS) into the heart, and after 5 minutes, excising the eyeballs. That is, the retina was separated from the excised eyeball, spread on a slide glass to prepare a flat mounted specimen of the retina, then observed with a stereoscopic fluorescent microscope and photographed to evaluate retinopathy. When retinal fold (retinal detachment) accompanied by thickening of the retina around optic nerve head was recognized in the pathological examination, or when fluorescence dye leakage accompanied by retinal vascular tortuosity and/or caliber variation around optic nerve head was recognized in the fluorescein fundus photography, it was assumed that severe retinopathy occurred in the SDT rat. […] That is, it was attempted to clarify the inhibitory effect on the onset by setting a longer duration of the disease.

[1] = male SDT rats, 16 mg/kg/day in feed from about 25 weeks of age, at 36 weeks of age, pathological examination

NC(=O)[C@@H]1C[C@]2(NC(=O)NC2=O)c2cc(F)ccc2O1 [SNK-860, (2S,4S)-6-fluoro-2′,5′-dioxospiro[chroman-4,4′-imidazolidine]-2-carboxamide]
inhibitory effect on the onset of tractional retinal detachment (in words) (SDT rats, long-term administration): strongly inhibited
onset of tractional retinal detachment (affected eyes/examined eyes) [1]: 0/3
onset of tractional retinal detachment (percent of eyes) [1]: 0%
degree of onset of tractional retinal detachment or fluorescence dye leakage accompanied by retinal vascular tortuosity and/or caliber variation around optic nerve head (affected eyes/examined eyes) (male SDT rats, 16 mg/kg/day in feed from about 25 weeks of age, at 52-58 weeks of age, untreated 7/11 eyes): 3/14
degree of onset of tractional retinal detachment or fluorescence dye leakage accompanied by retinal vascular tortuosity and/or caliber variation around optic nerve head (percent of eyes) (male SDT rats, 16 mg/kg/day in feed from about 25 weeks of age, at 52-58 weeks of age, untreated 64%): 21%
